The test system of series [1] is Aspergillus niger ATCC 6275. The experiment in a line: Test on fungicidal effect on fungi (agar medium diluting method). The class given is cell-based. To be noted: PDA, 27° C., cultivation period 4 days. How it is done:
(§1) By an agar medium diluting method, the fungicidal activities of compounds Nos. 12, 17, 18, 23, 24, 26, 27 and 32 of the invention on fungi doing harm to industrial products and materials were examined.
(§2) A hypha piece, 5 mm in diameter, of each of the fungi indicated in Table 3 was inoculated in a potato dextrose agar medium (PDA) containing each of the above compounds, and cultivated at 27° C. After the lapse of a predetermined period, the growth state of the fungus was observed, and the minimum inhibitory concentration of the compound was determined.

In series [2] the test system is Cladosporium herbarum TAMF 517. Described as above. To be noted: PDA, 27° C., cultivation period 4 days. The class given is cell-based. How it is done:
as §1, §2

In series [3] the test system is Penicillium citrinum ATCC 9849. Described as above. The class given is cell-based. To be noted: PDA, 27° C., cultivation period 4 days. How it is done: as §1, §2
Series [4] deals with Caetomium globosum ATCC 6205. The series is described as above. The class given is cell-based. To be noted: PDA, 27° C., cultivation period 3 days (compound 18: 4 days). How it is done: as §1, §2
Series [5] concerns tobacco cutworms (Prodenia litura Fabrficius). The experiment in a line: Test on insecticidal efficacy on tobacco cutworms. To be noted: 500 ppm in artificial feed, 4th-instar larvae, 6 days; wettable powder of Formulation Example 5 (contains Fenitrothion). The class given is in vivo. As for the experimental part: A wettable powder of each of compounds Nos. 3, 7, 8, 9, 11, 12, 13, 14, 17, 18 and 31 of the invention obtained in accordance with Formulation Example 5 was diluted with water to 200 times (corresponding to a concentration of 500 ppm). Two milliliters of the dilution was impregnated in 13 g of an artificial feed for tobacco cutworms, and the feed was put in a polyethylene cup having a diameter of 11 cm. Ten 4th-instar larvae of tobacco cutworms were released into the cup, and examined for mortality 6 days later. The above experiment was carried out through two replicates.

A further series deals with Culex pipiens. The experiment in a line: Test on insecticidal effect on Culex pipiens. To be noted: 3.5 ppm, wettable powder of Formulation Example 5 (contains Fenitrothion); for Death rate: final-instar larvae, next day, 1440 min; for Emergence inhibition rate: when all larvae in non-treated area emerged. The class given is in vivo. As for the experimental part:
A wettable powder of each of compounds Nos. 2, 7, 8, 11, 13, 14, 17, 18 and 31 obtained in accordance with Formulation Example 5 was diluted with water to 3.5 ppm. One hundred milliliters of the dilution was put in each of 180 ml. polyethylene cups and 20 final-instar larvae of Culex pipiens were released into the cup. On the next day, the larvae were examined for mortality.
Thereafter, feeds were added to the test areas, and when all larvae n the non-treated area emerged, the emergence inhibition rate was examined.
The death rate and the emergence inhibition rate were rated by three grades as follows: […]

For series [6], the system named is marine animals and plants. The experiment in a line: Test on antifouling effects on marine animals and plants in the sea. The class given is in vivo. To be noted: antifouling paint on vinyl chloride plate, Owase Bay. How it is done:
A ship bottom antifouling paint was prepared by adding 24 g of Rosin WW, 12 g of a vinyl copolymer, 4 g of tricresyl phosphate, 10 g of bentonite, 20 g of baryta, 20 g of red iron oxide, 35 g of xylene and 35 g of methyl isobutyl ketone to 40 g of each of compounds Nos. 2, 8, 14, 17, 20 and 32 of the invention and vigorously stirring the mixture at room temperature for 1 hour. The paint was coated on both surfaces of a rigid vinyl chloride resin plate, 17×9×0.3 cm in size, to a dry thickness of about 200 microns. The coated plate was submerged in the sea in Owase Bay, Mie Prefecture, Japan for 12 months, and its fouled state was regularly observed.
The symbols in the table show the following.

The test system of a further series is Plasmopara viticola. In words: Test on fungicidal effect on downy mildew of grape. To be noted: sprayed on grape seedlings. The class given is in vivo. The text has this: Sandy soil was filled in plastic pots, and seeds of grape (variety: Neomuscat) were sown, and grown for about 1 month in a greenhouse to obtain young seedlings of grape in the 2-3 leaf stage. A water dilution of an emulsifiable concentrate of a wettable powder of each of the test compounds was sprayed onto the leaves of these seedlings so that the chemical adhered fully to the surfaces of the leaves. After drying the chemical in air, a suspension of conidospores of a […] pathogen of grape (Plasmopara viticola) was inoculated in the seedling by spraying. The seedlings were placed for 2 days in a high humidity condition at 23° C., and subsequently cultivated for 14 days in a greenhouse kept at 20° to 25° C. to cause onset of the disease. Thereafter, the state of the disease was observed.
The degree of disease was calculated by the following method. The examined leaves were classified by indices of 0, 0.5, 1, 2 and 4 according to the degrees of appearance of lesions, and the degree of disease was calculated from the following equation.
0: No fungus colony or lesion was noted on the surface of the leaves.
The control index was calculated from the following equation. [formula]

The test system of series [7] is carmine mites (Tetranychus telarius L.). The experiment in a line: Miticidal effect on carmine mites. The class given is in vivo. More on the design: key: -: Hardly any injury was observed.; +: Some injury was observed.; ++: The same injury as in the non-treated area was noted. To be noted: 500 ppm active ingredient, spray plus soil, kidney beans, 8 days later. How it is done:
Female imagoes of carmine mites were caused to live at a rate of 10 per leaf on bineless kidney beans (in the primary leaf stage) in pots 7 days after sowing, and kept in a constant temperature chamber at 25° C. Six days later, a chemical obtained by diluting a wettable powder of each of compounds Nos. 4-6, 9-13, 15, 16, 21, 22, 25, 28-30, 33, 34, 36, 37 and 38 with water to an active ingredient concentration of 500 ppm was sprayed at a rate of 10 ml per pot, and at the same time, 2 ml of the chemical was poured into the soil. Eight days later, injuries to the plants by the mites were examined.
The degree of injury is shown by -, + and ++ as follows: […]

This note sets out measurements from patent US4654368A, “Tri-organotin silatrane derivatives and pesticidal compositions, fungicides or antifouling agents comprising said compounds as active ingredients” (Nitto Kasei Co., Ltd., priority 1984, dated 1987).

For the compound `CCC[CH2][Sn]([CH2]CCC)([CH2]CCC)[S]CCC[Si]12OCCN(CCO1)CC(C)O2` (stereo not shown) [compound 24], the Minimum inhibitory concentration in series [1], in series [2], in series [3] and in series [4] was less than 12.5 ppm each time.
For `CCC[CH2][Sn]([CH2]CCC)([CH2]CCC)[S]CCC[Si]12OCCN(CCO1)CCO2` [compound 14], the Death rate in [5] stood at 100%. In the series with Culex pipiens, the Death rate result is “A (90% or higher)” and the Emergence inhibition rate entry is listed as “A (90% or higher)”. In series [6], the “Fouled state, period of submerging 4 months” value is listed as “.circle”; the “Fouled state, period of submerging 8 months” value is listed as “.circle”; the “Fouled state, period of submerging 12 months” value is listed as “.circle”.
On to `CC[CH2][Sn]([CH2]CC)([CH2]CC)[S]CCC[Si]12OCCN(CCO1)CCO2` [compound 17], for which the Death rate is 100% in series [5] and “C (less than 10%)” in the series on Culex pipiens. For the same compound, the Emergence inhibition rate entry in the series on Culex pipiens is listed as “A (90% or higher)”. In addition, the Minimum inhibitory concentration in series [1] was less than 2.5 ppm; in series [2], less than 12.5 ppm; in [3] it was less than 2.5 ppm; in [4], less than 2.5 ppm. For the same compound, the “Fouled state, period of submerging 4 months” value in series [6] is “.circle”. Also, the “Fouled state, period of submerging 8 months” value in series [6] is listed as “.circle”. Further, in series [6], the “Fouled state, period of submerging 12 months” value was “.circle”.
Regarding `CCC1CN2CC(C)O[Si](CCC[S][Sn]([c]3ccccc3)([c]3ccccc3)[c]3ccccc3)(OC(C)C2)O1` (stereo not shown) [compound 32], the Minimum inhibitory concentration in series [1], in [2], in series [3] and in series [4] was less than 12.5 ppm throughout. In addition, the “Fouled state, period of submerging 4 months” value in series [6] is on record as “.circle”. In [6], the “Fouled state, period of submerging 8 months” value is on record as “.circle”. In [6], the “Fouled state, period of submerging 12 months” value was “.circle”.
Regarding `CC(C)[CH2][Sn]([CH2]C(C)C)([CH2]C(C)C)[S]CCC[Si]12OCCN(CCO1)CCO2` [compound 26], the Minimum inhibitory concentration in [1], in series [2], in series [3] and in [4] was less than 12.5 ppm in each case.
Take `CC[CH2][Sn]([CH2]CC)([CH2]CC)[S]CCC[Si]12OC(C)CN(CC(C)O1)CC(C)O2` (stereo not shown) [compound 18]: the Death rate in series [5] is 100%; in the series on Culex pipiens it was “B (less than 90% to 10%)”. Besides, in the series on Culex pipiens, the Emergence inhibition rate result is listed as “A (90% or higher)”. The Minimum inhibitory concentration is given as less than 2.5 ppm in series [1], less than 12.5 ppm in [2], less than 12.5 ppm in [3] and less than 12.5 ppm in series [4].
`CC[CH2][Sn]([CH2]CC)([CH2]CC)[S]CCC[Si]12OCCN(CC(CC)O1)CC(CC)O2` (stereo not shown) [compound 23]: the Minimum inhibitory concentration in [1], in [2], in series [3] and in series [4] was less than 2.5 ppm in each case.
Turning to `CCC[CH2][Sn]([CH2]CCC)([CH2]CCC)[S]CCC[Si]12OC(C)CN(CC(C)O1)CC(C)O2` (stereo not shown) [compound 12], the Control index in the series on Plasmopara viticola (12.5 ppm active ingredient), with Plasmopara viticola (50 ppm active ingredient) and in the series on Plasmopara viticola (200 ppm active ingredient) was 100% throughout. In [5], this compound registered a Death rate of 100%. For the same compound, the Degree of injury result in series [7] is on record as “-”. Moreover, the Minimum inhibitory concentration in series [1], in series [2], in [3] and in [4] was less than 12.5 ppm each time.
As for `CC(C)[CH2][Sn]([CH2]C(C)C)([CH2]C(C)C)[S]CCC[Si]12OC(C)CN(CC(C)O1)CC(C)O2` (stereo not shown) [compound 27], the Minimum inhibitory concentration in series [1], in series [2], in series [3] and in series [4] was less than 12.5 ppm each time.
Turning to `CCC[CH2][Sn]([CH2]CCC)([CH2]CCC)[S]CC[Si]12OC(C)CN(CC(C)O1)CC(C)O2` (stereo not shown) [compound 8], the Control index in the series with Plasmopara viticola (12.5 ppm active ingredient) is reported as 94%; in the series with Plasmopara viticola (50 ppm active ingredient) it was 100%; in the series with Plasmopara viticola (200 ppm active ingredient), 100%. Also, the Death rate is 100% in series [5] and “B (less than 90% to 10%)” in the series on Culex pipiens. In addition, the Emergence inhibition rate entry in the series on Culex pipiens is “A (90% or higher)”. Besides, the “Fouled state, period of submerging 4 months” value in [6] is “.circle”. For the same compound, the “Fouled state, period of submerging 8 months” value in series [6] is listed as “.circle”. For the same compound, the “Fouled state, period of submerging 12 months” value in series [6] is on record as “.circle”.
